The kinase profiling compilation of Christmann-Franck et al. (2016)
pIC50: −log10 of the molar value.

Key:
AXL (human) = AXL (human) (UniProt P30530); test: radiometric filter-binding kinase assay
PRKDC (human) = PRKDC (human) (UniProt P78527); test: radiometric filter-binding kinase assay
CSF1R (human) = CSF1R (human) (UniProt P07333); test: radiometric filter-binding kinase assay
TEK (human) [1] = target: TEK (human) (UniProt Q02763); test: radiometric filter-binding kinase assay
KDR (human) = KDR (human) (UniProt P35968); test: radiometric filter-binding kinase assay
MET (human) = MET (human) (UniProt P08581); test: radiometric filter-binding kinase assay
PDPK1 (human) = PDPK1 (human) (UniProt O15530); test: radiometric filter-binding kinase assay
NTRK3 (human) = NTRK3 (human) (UniProt Q16288); test: KINOMEscan competition binding; conditions: compound 1.0 µM
RPS6KA2 KD1 (human) = RPS6KA2 KD1 (human) (UniProt Q15349); test: KINOMEscan competition binding; conditions: compound 1.0 µM
CLK2 (human) = CLK2 (human) (UniProt P49760); test: KINOMEscan competition binding; conditions: compound 1.0 µM
[2] = test system: EGFR (human), P00533 [G719C]; test: KINOMEscan competition binding; conditions: compound 1.0 µM
MARK4 (human) = MARK4 (human) (UniProt Q96L34); test: KINOMEscan competition binding; conditions: compound 1.0 µM
Sequence of MARK4 (human) (Q96L34 whole entry, looked up): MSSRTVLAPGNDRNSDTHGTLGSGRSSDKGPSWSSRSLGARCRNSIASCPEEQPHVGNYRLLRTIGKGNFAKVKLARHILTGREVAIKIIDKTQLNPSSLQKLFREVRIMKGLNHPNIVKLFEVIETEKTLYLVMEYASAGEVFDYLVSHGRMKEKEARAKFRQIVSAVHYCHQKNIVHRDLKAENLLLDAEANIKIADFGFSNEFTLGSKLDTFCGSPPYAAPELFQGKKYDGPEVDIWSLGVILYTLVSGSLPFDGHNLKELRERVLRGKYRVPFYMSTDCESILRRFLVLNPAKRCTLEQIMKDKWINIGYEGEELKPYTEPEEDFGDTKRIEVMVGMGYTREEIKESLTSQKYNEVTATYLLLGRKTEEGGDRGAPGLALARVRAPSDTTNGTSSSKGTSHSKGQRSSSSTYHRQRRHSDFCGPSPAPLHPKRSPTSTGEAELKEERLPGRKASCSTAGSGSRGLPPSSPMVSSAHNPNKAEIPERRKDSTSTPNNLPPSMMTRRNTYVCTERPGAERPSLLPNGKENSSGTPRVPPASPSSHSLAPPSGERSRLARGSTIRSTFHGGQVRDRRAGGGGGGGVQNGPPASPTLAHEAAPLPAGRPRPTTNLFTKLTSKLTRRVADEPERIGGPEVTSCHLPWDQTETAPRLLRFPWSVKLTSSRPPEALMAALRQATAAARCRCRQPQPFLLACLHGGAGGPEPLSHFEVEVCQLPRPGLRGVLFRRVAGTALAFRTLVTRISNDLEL

EPHA4 (human) = EPHA4 (human) (UniProt P54764); test: KINOMEscan competition binding; conditions: compound 1.0 µM
STK11 (human) = STK11 (human) (UniProt Q15831); test: KINOMEscan competition binding; conditions: compound 1.0 µM
DYRK1A (human) = DYRK1A (human) (UniProt Q13627); test: KINOMEscan competition binding; conditions: compound 1.0 µM
[3] = target: TYK2 JH1 catalytic (human) (UniProt P29597); test: KINOMEscan competition binding; conditions: compound 1.0 µM
[4] = test system: EIF2AK4 KD2 (human), Q9P2K8 [S808G]; test: KINOMEscan competition binding; conditions: compound 1.0 µM
MARK2 (human) = MARK2 (human) (UniProt Q7KZI7); test: KINOMEscan competition binding; conditions: compound 1.0 µM
Sequence of MARK2 (human) (Q7KZI7 whole entry, looked up): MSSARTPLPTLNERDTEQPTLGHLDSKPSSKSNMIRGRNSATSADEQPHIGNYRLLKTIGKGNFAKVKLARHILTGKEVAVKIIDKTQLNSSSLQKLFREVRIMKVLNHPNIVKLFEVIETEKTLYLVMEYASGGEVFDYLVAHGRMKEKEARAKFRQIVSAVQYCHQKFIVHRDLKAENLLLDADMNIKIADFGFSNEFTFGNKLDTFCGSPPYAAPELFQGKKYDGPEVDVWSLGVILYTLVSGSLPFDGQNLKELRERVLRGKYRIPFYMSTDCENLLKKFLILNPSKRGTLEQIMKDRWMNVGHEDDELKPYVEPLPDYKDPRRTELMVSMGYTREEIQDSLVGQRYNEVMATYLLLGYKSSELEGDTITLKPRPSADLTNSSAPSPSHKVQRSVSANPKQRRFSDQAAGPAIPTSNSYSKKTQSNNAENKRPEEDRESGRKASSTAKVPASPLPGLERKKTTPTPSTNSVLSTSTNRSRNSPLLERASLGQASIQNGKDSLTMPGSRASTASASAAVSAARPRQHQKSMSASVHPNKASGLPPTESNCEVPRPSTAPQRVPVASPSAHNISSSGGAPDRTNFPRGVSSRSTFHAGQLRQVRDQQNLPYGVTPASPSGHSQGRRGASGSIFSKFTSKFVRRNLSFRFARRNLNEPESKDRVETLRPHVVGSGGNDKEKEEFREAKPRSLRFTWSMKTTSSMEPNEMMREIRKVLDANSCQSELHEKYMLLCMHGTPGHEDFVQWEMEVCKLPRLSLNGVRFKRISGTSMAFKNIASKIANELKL

ITK (human) = ITK (human) (UniProt Q08881); test: KINOMEscan competition binding; conditions: compound 1.0 µM
RET (human) = RET (human) (UniProt P07949); test: KINOMEscan competition binding; conditions: compound 1.0 µM
[5] = test system: FLT3 (human), P36888 [ITD]; test: KINOMEscan competition binding; conditions: compound 1.0 µM
MYLK3 (human) = MYLK3 (human) (UniProt Q32MK0); test: KINOMEscan competition binding; conditions: compound 1.0 µM
TEK (human) [6] = target: TEK (human) (UniProt Q02763); test: KINOMEscan competition binding; conditions: compound 1.0 µM
MERTK (human) = MERTK (human) (UniProt Q12866); test: KINOMEscan competition binding; conditions: compound 1.0 µM
INSRR (human) = INSRR (human) (UniProt P14616); test: KINOMEscan competition binding; conditions: compound 1.0 µM
RPS6KA3 KD1 (human) = RPS6KA3 KD1 (human) (UniProt P51812); test: KINOMEscan competition binding; conditions: compound 1.0 µM
GSK3A (human) = GSK3A (human) (UniProt P49840); test: KINOMEscan competition binding; conditions: compound 1.0 µM
Sequence of GSK3A (human) (P49840 whole entry, looked up): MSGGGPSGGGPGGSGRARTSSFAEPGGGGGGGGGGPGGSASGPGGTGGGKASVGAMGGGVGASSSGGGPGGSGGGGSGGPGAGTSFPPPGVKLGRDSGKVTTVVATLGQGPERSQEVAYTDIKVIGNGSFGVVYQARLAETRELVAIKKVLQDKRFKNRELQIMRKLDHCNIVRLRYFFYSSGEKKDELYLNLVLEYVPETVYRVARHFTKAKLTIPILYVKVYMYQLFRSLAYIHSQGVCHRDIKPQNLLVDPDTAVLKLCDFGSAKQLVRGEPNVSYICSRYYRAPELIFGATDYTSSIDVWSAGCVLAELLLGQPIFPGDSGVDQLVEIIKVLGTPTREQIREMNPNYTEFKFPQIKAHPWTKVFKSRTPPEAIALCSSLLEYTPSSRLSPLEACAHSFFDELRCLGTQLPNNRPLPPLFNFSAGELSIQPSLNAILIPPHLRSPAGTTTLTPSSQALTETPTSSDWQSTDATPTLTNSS

[7] = test system: EGFR (human), P00533 [752-759 del]; test: KINOMEscan competition binding; conditions: compound 1.0 µM
IRAK3 (human) = IRAK3 (human) (UniProt Q9Y616); test: KINOMEscan competition binding; conditions: compound 1.0 µM
RPS6KA6 KD2 (human) = RPS6KA6 KD2 (human) (UniProt Q9UK32); test: KINOMEscan competition binding; conditions: compound 1.0 µM
HCK (human) = HCK (human) (UniProt P08631); test: KINOMEscan competition binding; conditions: compound 1.0 µM
PRKG1 (human) = PRKG1 (human) (UniProt Q13976); test: KINOMEscan competition binding; conditions: compound 1.0 µM
MAPK11 (human) = MAPK11 (human) (UniProt Q15759); test: KINOMEscan competition binding; conditions: compound 1.0 µM
Sequence of MAPK11 (human) (Q15759 whole entry, looked up): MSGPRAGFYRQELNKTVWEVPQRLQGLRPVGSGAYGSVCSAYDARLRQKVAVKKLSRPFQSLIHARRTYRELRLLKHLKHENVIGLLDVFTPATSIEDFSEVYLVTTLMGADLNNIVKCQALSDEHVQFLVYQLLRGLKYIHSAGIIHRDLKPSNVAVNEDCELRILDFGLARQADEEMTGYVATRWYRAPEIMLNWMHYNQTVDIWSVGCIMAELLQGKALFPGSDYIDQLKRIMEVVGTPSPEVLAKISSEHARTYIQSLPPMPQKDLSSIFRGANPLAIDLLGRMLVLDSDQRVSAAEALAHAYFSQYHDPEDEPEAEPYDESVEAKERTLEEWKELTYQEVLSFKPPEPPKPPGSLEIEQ

CDKL2 (human) = CDKL2 (human) (UniProt Q92772); test: KINOMEscan competition binding; conditions: compound 1.0 µM
Sequence of CDKL2 (human) (Q92772 whole entry, looked up): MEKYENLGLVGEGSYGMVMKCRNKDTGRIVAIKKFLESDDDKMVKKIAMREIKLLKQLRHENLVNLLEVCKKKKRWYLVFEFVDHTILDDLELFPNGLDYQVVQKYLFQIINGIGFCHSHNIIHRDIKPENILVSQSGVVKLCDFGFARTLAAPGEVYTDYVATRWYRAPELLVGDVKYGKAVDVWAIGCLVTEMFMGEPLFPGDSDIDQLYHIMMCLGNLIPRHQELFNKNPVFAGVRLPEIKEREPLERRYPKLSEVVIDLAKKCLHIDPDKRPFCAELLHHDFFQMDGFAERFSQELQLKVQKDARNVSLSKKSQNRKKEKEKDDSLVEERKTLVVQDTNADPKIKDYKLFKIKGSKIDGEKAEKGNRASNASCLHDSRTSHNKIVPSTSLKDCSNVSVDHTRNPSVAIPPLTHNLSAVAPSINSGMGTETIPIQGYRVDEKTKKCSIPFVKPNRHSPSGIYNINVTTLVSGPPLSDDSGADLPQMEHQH

EPHA3 (human) = EPHA3 (human) (UniProt P29320); test: KINOMEscan competition binding; conditions: compound 1.0 µM
NTRK2 (human) = NTRK2 (human) (UniProt Q16620); test: KINOMEscan competition binding; conditions: compound 1.0 µM
PTK2B (human) = PTK2B (human) (UniProt Q14289); test: KINOMEscan competition binding; conditions: compound 1.0 µM
TGFBR2 (human) = TGFBR2 (human) (UniProt P37173); test: KINOMEscan competition binding; conditions: compound 1.0 µM
NIM1 (human) = NIM1 (human) (UniProt Q8IY84); test: KINOMEscan competition binding; conditions: compound 1.0 µM
FGFR4 (human) = FGFR4 (human) (UniProt P22455); test: KINOMEscan competition binding; conditions: compound 1.0 µM

Sequence of TEK (human) (Q02763 whole entry, looked up): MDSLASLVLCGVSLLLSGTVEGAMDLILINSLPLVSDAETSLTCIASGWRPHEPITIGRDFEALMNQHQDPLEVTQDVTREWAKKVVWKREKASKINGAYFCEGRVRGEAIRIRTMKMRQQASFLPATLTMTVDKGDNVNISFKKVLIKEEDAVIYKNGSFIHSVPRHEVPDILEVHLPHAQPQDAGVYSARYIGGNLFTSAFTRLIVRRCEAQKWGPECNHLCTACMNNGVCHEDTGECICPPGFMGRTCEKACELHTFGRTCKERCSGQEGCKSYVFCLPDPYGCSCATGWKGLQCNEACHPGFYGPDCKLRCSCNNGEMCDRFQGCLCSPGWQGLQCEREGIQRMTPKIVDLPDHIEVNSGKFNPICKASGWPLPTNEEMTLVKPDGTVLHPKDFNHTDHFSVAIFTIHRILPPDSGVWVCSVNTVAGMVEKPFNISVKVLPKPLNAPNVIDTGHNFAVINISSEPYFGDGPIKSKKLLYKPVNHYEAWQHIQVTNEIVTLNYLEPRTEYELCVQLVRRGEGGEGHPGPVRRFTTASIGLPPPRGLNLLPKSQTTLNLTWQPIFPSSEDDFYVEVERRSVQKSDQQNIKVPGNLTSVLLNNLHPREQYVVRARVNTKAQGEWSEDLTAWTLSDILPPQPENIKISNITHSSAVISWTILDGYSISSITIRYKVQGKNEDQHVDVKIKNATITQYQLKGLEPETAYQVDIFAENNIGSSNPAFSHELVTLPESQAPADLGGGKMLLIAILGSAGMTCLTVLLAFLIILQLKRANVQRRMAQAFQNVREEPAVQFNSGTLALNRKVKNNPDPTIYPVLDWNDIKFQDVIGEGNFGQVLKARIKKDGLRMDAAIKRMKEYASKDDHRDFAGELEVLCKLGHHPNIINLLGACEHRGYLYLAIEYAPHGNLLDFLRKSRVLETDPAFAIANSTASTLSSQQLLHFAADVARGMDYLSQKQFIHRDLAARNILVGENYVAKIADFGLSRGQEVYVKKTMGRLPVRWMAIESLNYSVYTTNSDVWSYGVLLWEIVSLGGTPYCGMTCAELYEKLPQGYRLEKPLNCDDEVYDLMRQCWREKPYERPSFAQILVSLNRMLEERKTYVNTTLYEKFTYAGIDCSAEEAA
Sequence of CSF1R (human) (P07333 whole entry, looked up): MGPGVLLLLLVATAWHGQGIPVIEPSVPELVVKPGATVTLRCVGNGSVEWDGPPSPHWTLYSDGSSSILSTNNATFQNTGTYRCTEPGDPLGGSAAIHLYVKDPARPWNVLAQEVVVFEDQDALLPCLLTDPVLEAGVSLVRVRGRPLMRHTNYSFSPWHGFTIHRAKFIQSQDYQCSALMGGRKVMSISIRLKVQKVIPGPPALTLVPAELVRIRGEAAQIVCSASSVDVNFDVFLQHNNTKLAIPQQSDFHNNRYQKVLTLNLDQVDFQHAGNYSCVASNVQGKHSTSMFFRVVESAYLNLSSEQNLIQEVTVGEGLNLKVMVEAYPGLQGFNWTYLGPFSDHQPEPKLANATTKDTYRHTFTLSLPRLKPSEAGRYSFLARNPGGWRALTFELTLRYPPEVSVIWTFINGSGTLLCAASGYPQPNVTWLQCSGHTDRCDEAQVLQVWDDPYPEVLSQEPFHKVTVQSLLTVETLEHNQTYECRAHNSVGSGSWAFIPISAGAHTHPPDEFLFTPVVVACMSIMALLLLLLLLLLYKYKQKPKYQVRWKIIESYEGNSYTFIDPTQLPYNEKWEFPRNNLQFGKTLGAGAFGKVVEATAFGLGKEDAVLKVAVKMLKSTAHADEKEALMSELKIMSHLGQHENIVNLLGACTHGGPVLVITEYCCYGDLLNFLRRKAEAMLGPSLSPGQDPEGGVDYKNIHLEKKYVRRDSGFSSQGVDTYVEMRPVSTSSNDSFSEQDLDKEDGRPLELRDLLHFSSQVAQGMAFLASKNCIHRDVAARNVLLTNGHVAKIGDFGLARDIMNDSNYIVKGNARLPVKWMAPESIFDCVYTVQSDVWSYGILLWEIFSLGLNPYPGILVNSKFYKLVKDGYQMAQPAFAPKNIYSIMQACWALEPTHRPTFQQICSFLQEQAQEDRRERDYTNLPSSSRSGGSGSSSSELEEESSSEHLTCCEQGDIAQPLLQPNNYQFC

## Nc1cc(C(F)(F)F)c(-c2cc(N3CCOCC3)nc(N3CCOCC3)n2)cn1
AXL (human)
  pIC50: < 5.00
PRKDC (human)
  pIC50: < 5.00
CSF1R (human)
  pIC50: 6.24
TEK (human) [1]
  pIC50: < 5.00
KDR (human)
  pIC50: < 5.00
MET (human)
  pIC50: < 5.00
PDPK1 (human)
  pIC50: < 5.00
NTRK3 (human)
  inhibition of binding: 0%
RPS6KA2 KD1 (human)
  inhibition of binding: 2%
CLK2 (human)
  inhibition of binding: 0%
[2]
  inhibition of binding: 4%
MARK4 (human)
  inhibition of binding: 0%
EPHA4 (human)
  inhibition of binding: 2%
STK11 (human)
  inhibition of binding: 0%
DYRK1A (human)
  inhibition of binding: 11%
[3]
  inhibition of binding: 0%
[4]
  inhibition of binding: 35%
MARK2 (human)
  inhibition of binding: 0%
ITK (human)
  inhibition of binding: 0%
RET (human)
  inhibition of binding: 8%
[5]
  inhibition of binding: 0%
MYLK3 (human)
  inhibition of binding: 0%
TEK (human) [6]
  inhibition of binding: 0%
MERTK (human)
  inhibition of binding: 0%
INSRR (human)
  inhibition of binding: 0%
RPS6KA3 KD1 (human)
  inhibition of binding: 0%
GSK3A (human)
  inhibition of binding: 42%
[7]
  inhibition of binding: 0%
IRAK3 (human)
  inhibition of binding: 0%
RPS6KA6 KD2 (human)
  inhibition of binding: 18%
HCK (human)
  inhibition of binding: 0%
PRKG1 (human)
  inhibition of binding: 0%
MAPK11 (human)
  inhibition of binding: 0%
CDKL2 (human)
  inhibition of binding: 0%
EPHA3 (human)
  inhibition of binding: 0%
NTRK2 (human)
  inhibition of binding: 0%
PTK2B (human)
  inhibition of binding: 0%
TGFBR2 (human)
  inhibition of binding: 24%
NIM1 (human)
  inhibition of binding: 0%
FGFR4 (human)
  inhibition of binding: 0%
